{"source": "patent US10604554B2", "about": "“Double-acylated GLP-1 derivatives” (Novo Nordisk A/S, priority 2012, dated 2020)", "key": {"human GLP-1 receptor [1]": {"target": "T1, human GLP-1 receptor (Homo sapiens, UniProt P43220)", "T1 construct": "expressed in transfected cells; host or cells: BHK cells, clone FCW467-12A/KZ10-1 (parent line BHKTS13), further transfected with CRE luciferase", "T1 sequence (P43220 24-463)": "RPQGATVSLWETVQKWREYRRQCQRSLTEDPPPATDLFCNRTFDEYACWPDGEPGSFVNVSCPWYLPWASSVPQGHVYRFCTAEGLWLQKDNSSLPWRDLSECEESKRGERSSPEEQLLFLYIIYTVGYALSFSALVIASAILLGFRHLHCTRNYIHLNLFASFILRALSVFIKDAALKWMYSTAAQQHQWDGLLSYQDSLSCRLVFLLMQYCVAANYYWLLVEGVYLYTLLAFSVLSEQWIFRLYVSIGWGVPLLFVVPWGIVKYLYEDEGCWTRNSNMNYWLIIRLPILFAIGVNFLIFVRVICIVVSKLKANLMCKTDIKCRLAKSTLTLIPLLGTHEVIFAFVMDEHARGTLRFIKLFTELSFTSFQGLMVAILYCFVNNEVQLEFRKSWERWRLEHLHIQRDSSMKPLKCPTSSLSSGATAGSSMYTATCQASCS", "experiment": "In vitro potency (CRE luciferase; whole cells)", "type": "cell-based", "parameters": "EC50/pM (ratio 1% HSA/0% HSA): unit not given here", "conditions": "for pEC50: BHK cells; for EC50/pM (ratio 1% HSA/0% HSA): ratio of EC50 at 1% HSA to EC50 at 0% HSA", "outline": "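Reporter: CRE-luciferase in BHK cells stably expressing human GLP-1R, 5×10^3 cells/well; compounds tested in buffer containing 0% or 1% HSA.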"}, "human GLP-1 receptor [2]": {"target": "T1, human GLP-1 receptor", "experiment": "GLP-1 receptor binding (SPA, displacement of 125I-GLP-1)", "outline": "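Tracer [125I]-GLP-1(7-36)NH2 at 0.06 nM final competed on hamster stably transfected cell membranes captured by WGA SPA beads; 120 min, 30 °C, scintillation count.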"}, "[3]": {"conditions": "In vitro potency (CRE luciferase) EC50 (0% HSA), 0% HSA"}, "[4]": {"conditions": "In vitro potency (CRE luciferase) EC50 (1% HSA), 1% HSA"}, "[5]": {"conditions": "Receptor binding affinity IC50 (high HSA), 2.0% HSA (high albumin)"}, "[6]": {"conditions": "Receptor binding affinity IC50 (low HSA), 0.001% HSA (low albumin)"}}, "note": "pEC50, pIC50: −log10 of the molar value. Numbered stars: 1 amine (or outer) side, 2 acyl side, 3 side chain; on linkers, the order of the positions; unused ones are H or OH. Square brackets hold non-standard residues; d marks the D form. Side chains are listed from the residue outwards. Peptide text beside a SMILES is read from it. * marks the point of attachment. Undecanoyl(11-OPh(4-COOH)) = O=C(O)c1ccc(OCCCCCCCCCCC(=O)*)cc1; γGlu = O=C(O)[C@H](CCC(=O)[*:2])N[*:1]; εLys = N[C@@H](CCCCN[*:1])C(=O)[*:2]; Aib = CC(C)(N)C(=O)O", "data": [{"compound": "CC[C@H](C)[C@H](NC(=O)[C@H](Cc1ccccc1)NC(=O)[C@H](CCC(=O)O)NC(=O)[C@H](CCCCNC(=O)[C@@H](N)CCCCNC(=O)[C@@H](N)CCCCNC(=O)CC[C@H](NC(=O)CC[C@H](NC(=O)CCCCCCCCCCOc1ccc(C(=O)O)cc1)C(=O)O)C(=O)O)NC(=O)[C@H](C)NC(=O)[C@H](C)NC(=O)[C@H](CCC(N)=O)NC(=O)CNC(=O)[C@H](CCC(=O)O)NC(=O)[C@H](CC(C)C)NC(=O)[C@H](Cc1ccc(O)cc1)NC(=O)[C@H](CO)NC(=O)[C@H](CO)NC(=O)[C@@H](NC(=O)[C@H](CC(=O)O)NC(=O)[C@H](CO)NC(=O)[C@@H](NC(=O)[C@H](Cc1ccccc1)NC(=O)[C@@H](NC(=O)CNC(=O)[C@H](CCC(=O)O)NC(=O)C(C)(C)NC(=O)[C@@H](N)Cc1c[nH]cn1)[C@@H](C)O)[C@@H](C)O)C(C)C)C(=O)N[C@@H](C)C(=O)N[C@@H](Cc1c[nH]c2ccccc12)C(=O)N[C@@H](CC(C)C)C(=O)N[C@H](C(=O)N[C@@H](CCCNC(=N)N)C(=O)NCC(=O)N[C@@H](CCCNC(=N)N)C(=O)N[C@@H](CCCCNC(=O)[C@@H](N)CCCCNC(=O)[C@@H](N)CCCCNC(=O)CC[C@H](NC(=O)CC[C@H](NC(=O)CCCCCCCCCCOc1ccc(C(=O)O)cc1)C(=O)O)C(=O)O)C(=O)O)C(C)C", "note": "[Example 38, N^ε26-[(2S)-2-amino-6-[[(2S)-2-amino-6-[[(4S)-4-carboxy-4-[[(4S)-4-carboxy-4-[11-(4-carboxyphenoxy)undecanoylamino]butanoyl]amino]butanoyl]amino]hexanoyl]amino]hexanoyl], N^ε37-[(2S)-2-amino-6-[[(2S)-2-amino-6-[[(4S)-4-carboxy-4-[[(4S)-4-carboxy-4-[11-(4-carboxyphenoxy)undecanoylamino]butanoyl]amino]butanoyl]amino]hexanoyl]amino]hexanoyl]-[Aib^8,Arg^34,Lys^37]-GLP-1-(7-37)-peptide]", "values": [{"measurement": "pEC50", "setting": "human GLP-1 receptor [1]; [3]", "value": 11.12}, {"measurement": "pEC50", "setting": "human GLP-1 receptor [1]; [4]", "value": 9.72}, {"measurement": "pIC50", "setting": "human GLP-1 receptor [2]; [5]", "value": 7.28}]}, {"compound": "CC[C@H](C)[C@H](NC(=O)[C@H](Cc1ccccc1)NC(=O)[C@H](CCC(=O)O)NC(=O)[C@H](CCCCNC(=O)[C@@H](N)CCCCNC(=O)CC[C@H](NC(=O)CC[C@H](NC(=O)CC[C@H](NC(=O)CCCCCCCCCCOc1ccc(C(=O)O)cc1)C(=O)O)C(=O)O)C(=O)O)NC(=O)[C@H](C)NC(=O)[C@H](C)NC(=O)[C@H](CCC(N)=O)NC(=O)CNC(=O)[C@H](CCC(=O)O)NC(=O)[C@H](CC(C)C)NC(=O)[C@H](Cc1ccc(O)cc1)NC(=O)[C@H](CO)NC(=O)[C@H](CO)NC(=O)[C@@H](NC(=O)[C@H](CC(=O)O)NC(=O)[C@H](CO)NC(=O)[C@@H](NC(=O)[C@H](Cc1ccccc1)NC(=O)[C@@H](NC(=O)CNC(=O)[C@H](CCC(=O)O)NC(=O)C(C)(C)NC(=O)[C@@H](N)Cc1c[nH]cn1)[C@@H](C)O)[C@@H](C)O)C(C)C)C(=O)N[C@@H](C)C(=O)N[C@@H](Cc1c[nH]c2ccccc12)C(=O)N[C@@H](CC(C)C)C(=O)N[C@H](C(=O)N[C@@H](CCCNC(=N)N)C(=O)NCC(=O)N[C@@H](CCCNC(=N)N)C(=O)N[C@@H](CCCCNC(=O)[C@@H](N)CCCCNC(=O)CC[C@H](NC(=O)CC[C@H](NC(=O)CC[C@H](NC(=O)CCCCCCCCCCOc1ccc(C(=O)O)cc1)C(=O)O)C(=O)O)C(=O)O)C(=O)O)C(C)C", "note": "[Example 39, N^ε26-[(2S)-2-amino-6-[[(4S)-4-carboxy-4-[[(4S)-4-carboxy-4-[[(4S)-4-carboxy-4-[11-(4-carboxyphenoxy)undecanoylamino]butanoyl]amino]butanoyl]amino]butanoyl]amino]hexanoyl], N^ε37-[(2S)-2-amino-6-[[(4S)-4-carboxy-4-[[(4S)-4-carboxy-4-[[(4S)-4-carboxy-4-[11-(4-carboxyphenoxy)undecanoylamino]butanoyl]amino]butanoyl]amino]butanoyl]amino]hexanoyl]-[Aib^8,Arg^34,Lys^37]-GLP-1-(7-37)-peptide]", "values": [{"measurement": "pEC50", "setting": "human GLP-1 receptor [1]; [3]", "value": 11.43}, {"measurement": "pEC50", "setting": "human GLP-1 receptor [1]; [4]", "value": 9.85}, {"measurement": "EC50/pM (ratio 1% HSA/0% HSA)", "setting": "human GLP-1 receptor [1]", "value": 38}, {"measurement": "pIC50", "setting": "human GLP-1 receptor [2]; [5]", "value": 6.88}, {"measurement": "pIC50", "setting": "human GLP-1 receptor [2]; [6]", "value": 10.22}]}, {"compound": "CC[C@H](C)[C@H](NC(=O)[C@H](Cc1ccccc1)NC(=O)[C@H](CCC(=O)O)NC(=O)[C@H](CCCCNC(=O)[C@@H](N)CCCCNC(=O)CC[C@H](NC(=O)CC[C@H](NC(=O)CCCCCCCCCCOc1ccc(C(=O)O)cc1)C(=O)O)C(=O)O)NC(=O)[C@H](C)NC(=O)[C@H](C)NC(=O)[C@H](CCC(N)=O)NC(=O)CNC(=O)[C@H](CCC(=O)O)NC(=O)[C@H](CC(C)C)NC(=O)[C@H](Cc1ccc(O)cc1)NC(=O)[C@H](CO)NC(=O)[C@H](CO)NC(=O)[C@@H](NC(=O)[C@H](CC(=O)O)NC(=O)[C@H](CO)NC(=O)[C@@H](NC(=O)[C@H](Cc1ccccc1)NC(=O)[C@@H](NC(=O)CNC(=O)[C@H](CCC(=O)O)NC(=O)C(C)(C)NC(=O)[C@@H](N)Cc1c[nH]cn1)[C@@H](C)O)[C@@H](C)O)C(C)C)C(=O)N[C@@H](C)C(=O)N[C@@H](Cc1c[nH]c2ccccc12)C(=O)N[C@@H](CC(C)C)C(=O)N[C@H](C(=O)N[C@@H](CCCNC(=N)N)C(=O)NCC(=O)N[C@@H](CCCNC(=N)N)C(=O)N[C@@H](CCCCNC(=O)[C@@H](N)CCCCNC(=O)CC[C@H](NC(=O)CC[C@H](NC(=O)CCCCCCCCCCOc1ccc(C(=O)O)cc1)C(=O)O)C(=O)O)C(=O)O)C(C)C", "note": "[Example 40, N^ε26-[(2S)-2-amino-6-[[(4S)-4-carboxy-4-[[(4S)-4-carboxy-4-[11-(4-carboxyphenoxy)undecanoylamino]butanoyl]amino]butanoyl]amino]hexanoyl], N^ε37-[(2S)-2-amino-6-[[(4S)-4-carboxy-4-[[(4S)-4-carboxy-4-[11-(4-carboxyphenoxy)undecanoylamino]butanoyl]amino]butanoyl]amino]hexanoyl]-[Aib^8,Arg^34,Lys^37]-GLP-1-(7-37)-peptide]", "values": [{"measurement": "pEC50", "setting": "human GLP-1 receptor [1]; [3]", "value": 11.59}, {"measurement": "pIC50", "setting": "human GLP-1 receptor [2]; [5]", "value": 6.71}, {"measurement": "pIC50", "setting": "human GLP-1 receptor [2]; [6]", "value": 10.52}]}, {"compound": "CC[C@H](C)[C@H](NC(=O)[C@H](Cc1ccccc1)NC(=O)[C@H](CCC(=O)O)NC(=O)[C@H](CCCCNC(=O)[C@@H](N)CCCCNC(=O)CC[C@H](NC(=O)CC[C@H](NC(=O)CCCCCCCCCCOc1ccc(C(=O)O)cc1)C(=O)O)C(=O)O)NC(=O)[C@H](C)NC(=O)[C@H](C)NC(=O)[C@H](CCC(N)=O)NC(=O)[C@H](CCC(=O)O)NC(=O)[C@H](CCC(=O)O)NC(=O)[C@H](CC(C)C)NC(=O)[C@H](Cc1ccc(O)cc1)NC(=O)[C@H](CO)NC(=O)[C@H](CO)NC(=O)[C@@H](NC(=O)[C@H](CC(=O)O)NC(=O)[C@H](CO)NC(=O)[C@@H](NC(=O)[C@H](Cc1ccccc1)NC(=O)[C@@H](NC(=O)CNC(=O)[C@H](CCC(=O)O)NC(=O)C(C)(C)NC(=O)[C@@H](N)Cc1c[nH]cn1)[C@@H](C)O)[C@@H](C)O)C(C)C)C(=O)N[C@@H](CCC(=O)O)C(=O)N[C@@H](Cc1c[nH]c2ccccc12)C(=O)N[C@@H](CC(C)C)C(=O)N[C@H](C(=O)N[C@@H](CCCNC(=N)N)C(=O)NCC(=O)N[C@@H](CCCNC(=N)N)C(=O)N[C@@H](CCCCNC(=O)[C@@H](N)CCCCNC(=O)CC[C@H](NC(=O)CC[C@H](NC(=O)CCCCCCCCCCOc1ccc(C(=O)O)cc1)C(=O)O)C(=O)O)C(=O)O)C(C)C", "note": "[Example 41, N^ε26-[(2S)-2-amino-6-[[(4S)-4-carboxy-4-[[(4S)-4-carboxy-4-[11-(4-carboxyphenoxy)undecanoylamino]butanoyl]amino]butanoyl]amino]hexanoyl], N^ε37-[(2S)-2-amino-6-[[(4S)-4-carboxy-4-[[(4S)-4-carboxy-4-[11-(4-carboxyphenoxy)undecanoylamino]butanoyl]amino]butanoyl]amino]hexanoyl]-[Aib^8,Glu^22,Glu^30,Arg^34, Lys^37]-GLP-1-(7-37)-peptide] (H-H[Aib]EGTFTSDVSSYLEEQAAK([εLys-γGlu-γGlu-Undecanoyl(11-OPh(4-COOH))])EFIEWLVRGRK([εLys-γGlu-γGlu-Undecanoyl(11-OPh(4-COOH))])-OH; N-terminus and C-terminus assumed)", "values": [{"measurement": "EC50/pM (ratio 1% HSA/0% HSA)", "setting": "human GLP-1 receptor [1]", "value": 260}, {"measurement": "pIC50", "setting": "human GLP-1 receptor [2]; [6]", "value": 10.52}]}]}
